The record followed here is ChEMBL document CHEMBL5678818, “Discovery of potent SOS1 inhibitors that block RAS activation via disruption of the RAS-SOS1 interaction” (Proc Natl Acad Sci U S A, 2019).

Assay [1] concerns the target RAC-alpha serine/threonine-protein kinase (Homo sapiens) (UniProt P31749). Put plainly: Inhibition of AKT1 (unknown origin) assessed as residual activity at 100 nM by KINOMEscan analysis relative to control.
Assay [2] concerns the target T1, Cyclin-dependent kinase-like 2 (Homo sapiens) (UniProt Q92772).
T1 sequence (whole entry): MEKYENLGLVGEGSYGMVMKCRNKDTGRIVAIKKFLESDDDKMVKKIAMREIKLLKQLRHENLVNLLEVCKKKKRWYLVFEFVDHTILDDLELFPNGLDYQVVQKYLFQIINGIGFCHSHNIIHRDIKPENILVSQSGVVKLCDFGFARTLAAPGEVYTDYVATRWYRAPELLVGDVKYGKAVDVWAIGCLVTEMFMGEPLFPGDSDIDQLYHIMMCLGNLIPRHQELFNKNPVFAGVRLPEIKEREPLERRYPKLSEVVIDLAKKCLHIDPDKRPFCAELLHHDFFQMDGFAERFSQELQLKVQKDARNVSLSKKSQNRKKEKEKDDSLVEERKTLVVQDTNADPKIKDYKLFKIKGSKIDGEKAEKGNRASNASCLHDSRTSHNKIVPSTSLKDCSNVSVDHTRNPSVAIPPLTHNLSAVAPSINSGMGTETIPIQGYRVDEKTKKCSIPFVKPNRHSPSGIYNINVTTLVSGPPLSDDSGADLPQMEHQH
Kind of assay: Inhibition of CDKL2 (unknown origin) assessed as residual activity at 100 nM by KINOMEscan analysis relative to control.

Assay [3] concerns Epidermal growth factor receptor (Homo sapiens), P00533 [L858R,T790M]. Kind of assay: Inhibition of EGFR L858R/T790M mutant (unknown origin) assessed as residual activity at 100 nM by KINOMEscan analysis relative to control.
The target in assay [4] is Receptor-type tyrosine-protein kinase FLT3 (Homo sapiens) (UniProt P36888). Put plainly: Inhibition of FLT3 (unknown origin) assessed as residual activity at 100 nM by KINOMEscan analysis relative to control.
Receptor-type tyrosine-protein kinase FLT3 (Homo sapiens), sequence (P36888 whole entry): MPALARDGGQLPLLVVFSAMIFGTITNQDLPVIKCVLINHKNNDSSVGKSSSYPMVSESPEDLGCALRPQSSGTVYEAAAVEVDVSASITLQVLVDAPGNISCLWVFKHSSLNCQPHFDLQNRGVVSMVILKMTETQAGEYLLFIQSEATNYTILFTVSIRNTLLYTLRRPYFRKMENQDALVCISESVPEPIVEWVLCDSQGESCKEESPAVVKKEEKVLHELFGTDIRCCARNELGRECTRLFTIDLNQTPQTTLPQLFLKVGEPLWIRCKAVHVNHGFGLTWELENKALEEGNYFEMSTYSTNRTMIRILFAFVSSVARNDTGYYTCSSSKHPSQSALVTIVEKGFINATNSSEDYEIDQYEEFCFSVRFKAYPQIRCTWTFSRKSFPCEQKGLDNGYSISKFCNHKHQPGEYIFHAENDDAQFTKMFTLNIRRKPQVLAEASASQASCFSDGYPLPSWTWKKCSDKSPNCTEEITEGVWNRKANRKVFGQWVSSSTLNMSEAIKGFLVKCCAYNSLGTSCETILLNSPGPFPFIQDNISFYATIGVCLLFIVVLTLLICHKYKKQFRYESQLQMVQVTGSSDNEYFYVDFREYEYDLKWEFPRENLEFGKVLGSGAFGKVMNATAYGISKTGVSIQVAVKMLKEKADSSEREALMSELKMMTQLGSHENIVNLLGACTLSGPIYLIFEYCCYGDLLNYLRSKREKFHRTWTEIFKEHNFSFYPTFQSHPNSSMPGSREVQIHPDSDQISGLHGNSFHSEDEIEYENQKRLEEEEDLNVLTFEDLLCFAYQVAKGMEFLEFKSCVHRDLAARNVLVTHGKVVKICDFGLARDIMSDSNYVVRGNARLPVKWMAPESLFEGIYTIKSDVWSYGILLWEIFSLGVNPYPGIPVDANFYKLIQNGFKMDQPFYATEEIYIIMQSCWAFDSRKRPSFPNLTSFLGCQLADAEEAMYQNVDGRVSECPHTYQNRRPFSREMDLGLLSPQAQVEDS
The target of assay [5] is Maternal embryonic leucine zipper kinase (Homo sapiens) (UniProt Q14680). Kind of assay: Inhibition of MELK (unknown origin) assessed as residual activity at 100 nM by KINOMEscan analysis relative to control.
Maternal embryonic leucine zipper kinase (Homo sapiens), sequence (Q14680 whole entry, looked up): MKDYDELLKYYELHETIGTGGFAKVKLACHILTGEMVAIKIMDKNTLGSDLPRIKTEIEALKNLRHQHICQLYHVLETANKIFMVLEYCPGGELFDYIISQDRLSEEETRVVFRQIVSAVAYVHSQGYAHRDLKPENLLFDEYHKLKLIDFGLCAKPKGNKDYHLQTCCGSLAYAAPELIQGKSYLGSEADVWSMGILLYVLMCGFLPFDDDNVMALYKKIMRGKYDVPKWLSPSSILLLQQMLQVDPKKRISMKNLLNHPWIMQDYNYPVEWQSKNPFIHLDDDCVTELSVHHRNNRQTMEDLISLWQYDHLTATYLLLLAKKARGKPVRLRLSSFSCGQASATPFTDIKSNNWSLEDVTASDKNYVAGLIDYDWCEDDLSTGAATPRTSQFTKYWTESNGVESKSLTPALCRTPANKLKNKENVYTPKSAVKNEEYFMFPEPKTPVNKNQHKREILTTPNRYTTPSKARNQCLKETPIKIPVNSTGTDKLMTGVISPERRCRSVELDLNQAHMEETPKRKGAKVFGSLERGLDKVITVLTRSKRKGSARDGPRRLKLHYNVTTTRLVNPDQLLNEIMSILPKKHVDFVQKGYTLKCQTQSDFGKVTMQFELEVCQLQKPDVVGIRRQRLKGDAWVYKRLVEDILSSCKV
For assay [6], the target named is Myosin-IIIa (Homo sapiens) (UniProt Q8NEV4). Kind of assay: Inhibition of MYO3A (unknown origin) assessed as residual activity at 100 nM by KINOMEscan analysis relative to control.
Myosin-IIIa (Homo sapiens), sequence (Q8NEV4 whole entry): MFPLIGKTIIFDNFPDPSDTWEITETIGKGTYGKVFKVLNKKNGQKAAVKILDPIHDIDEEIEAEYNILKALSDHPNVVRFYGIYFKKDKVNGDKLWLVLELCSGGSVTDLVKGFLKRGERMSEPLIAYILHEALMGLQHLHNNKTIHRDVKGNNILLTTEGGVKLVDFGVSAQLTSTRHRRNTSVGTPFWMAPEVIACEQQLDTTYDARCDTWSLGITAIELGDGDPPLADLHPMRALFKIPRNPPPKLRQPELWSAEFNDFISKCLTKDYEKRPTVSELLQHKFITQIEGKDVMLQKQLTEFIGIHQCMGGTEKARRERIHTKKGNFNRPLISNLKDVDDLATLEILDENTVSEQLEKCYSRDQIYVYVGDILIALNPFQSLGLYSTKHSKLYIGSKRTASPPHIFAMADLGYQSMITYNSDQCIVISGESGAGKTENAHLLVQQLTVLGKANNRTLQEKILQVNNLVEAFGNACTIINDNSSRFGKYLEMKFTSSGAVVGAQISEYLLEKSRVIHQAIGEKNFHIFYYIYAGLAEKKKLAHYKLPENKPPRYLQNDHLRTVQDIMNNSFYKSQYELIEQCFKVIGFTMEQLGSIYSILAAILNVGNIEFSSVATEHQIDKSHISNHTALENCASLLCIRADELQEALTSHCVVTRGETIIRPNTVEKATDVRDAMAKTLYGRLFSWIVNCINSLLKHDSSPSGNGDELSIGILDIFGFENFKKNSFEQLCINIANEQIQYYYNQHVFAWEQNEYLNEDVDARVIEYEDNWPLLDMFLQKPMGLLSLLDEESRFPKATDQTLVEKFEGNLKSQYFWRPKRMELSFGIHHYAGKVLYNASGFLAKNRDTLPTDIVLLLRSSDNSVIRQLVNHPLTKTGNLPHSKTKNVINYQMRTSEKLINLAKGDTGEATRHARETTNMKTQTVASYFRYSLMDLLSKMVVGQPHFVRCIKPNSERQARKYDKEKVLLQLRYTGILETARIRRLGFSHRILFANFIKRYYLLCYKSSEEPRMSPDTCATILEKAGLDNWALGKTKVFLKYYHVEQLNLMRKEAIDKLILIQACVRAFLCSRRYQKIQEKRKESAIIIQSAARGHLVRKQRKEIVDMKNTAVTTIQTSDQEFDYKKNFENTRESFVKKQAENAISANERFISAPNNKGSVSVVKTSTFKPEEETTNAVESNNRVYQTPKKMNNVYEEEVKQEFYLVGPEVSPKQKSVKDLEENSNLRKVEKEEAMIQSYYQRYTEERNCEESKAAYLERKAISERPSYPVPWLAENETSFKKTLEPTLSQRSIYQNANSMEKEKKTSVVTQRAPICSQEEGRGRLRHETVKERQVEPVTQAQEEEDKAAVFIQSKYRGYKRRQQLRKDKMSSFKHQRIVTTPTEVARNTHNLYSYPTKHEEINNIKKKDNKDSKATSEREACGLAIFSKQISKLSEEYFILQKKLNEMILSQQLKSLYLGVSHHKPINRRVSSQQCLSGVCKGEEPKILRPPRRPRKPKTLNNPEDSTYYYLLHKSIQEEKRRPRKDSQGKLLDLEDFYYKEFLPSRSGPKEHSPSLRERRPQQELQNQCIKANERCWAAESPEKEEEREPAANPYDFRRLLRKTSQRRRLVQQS
The target in assay [7] is T2, Mitogen-activated protein kinase 12 (Homo sapiens) (UniProt P53778).
T2 sequence (whole entry): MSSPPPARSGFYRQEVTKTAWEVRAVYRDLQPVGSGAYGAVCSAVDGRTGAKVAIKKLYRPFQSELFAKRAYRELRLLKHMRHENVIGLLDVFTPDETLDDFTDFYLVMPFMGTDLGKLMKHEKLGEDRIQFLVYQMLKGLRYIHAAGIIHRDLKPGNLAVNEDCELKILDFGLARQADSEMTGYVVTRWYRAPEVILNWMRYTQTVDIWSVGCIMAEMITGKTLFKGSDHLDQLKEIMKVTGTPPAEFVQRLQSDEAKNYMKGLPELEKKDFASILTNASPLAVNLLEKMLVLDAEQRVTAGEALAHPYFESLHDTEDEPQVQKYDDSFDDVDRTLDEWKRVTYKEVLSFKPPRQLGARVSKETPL
Kind of assay: Inhibition of p38-gamma (unknown origin) assessed as residual activity at 100 nM by KINOMEscan analysis relative to control.

Assay [8] has as its target T3, Serine/threonine-protein kinase PknB (Mycobacterium tuberculosis) (UniProt P9WI81).
T3 sequence (whole entry): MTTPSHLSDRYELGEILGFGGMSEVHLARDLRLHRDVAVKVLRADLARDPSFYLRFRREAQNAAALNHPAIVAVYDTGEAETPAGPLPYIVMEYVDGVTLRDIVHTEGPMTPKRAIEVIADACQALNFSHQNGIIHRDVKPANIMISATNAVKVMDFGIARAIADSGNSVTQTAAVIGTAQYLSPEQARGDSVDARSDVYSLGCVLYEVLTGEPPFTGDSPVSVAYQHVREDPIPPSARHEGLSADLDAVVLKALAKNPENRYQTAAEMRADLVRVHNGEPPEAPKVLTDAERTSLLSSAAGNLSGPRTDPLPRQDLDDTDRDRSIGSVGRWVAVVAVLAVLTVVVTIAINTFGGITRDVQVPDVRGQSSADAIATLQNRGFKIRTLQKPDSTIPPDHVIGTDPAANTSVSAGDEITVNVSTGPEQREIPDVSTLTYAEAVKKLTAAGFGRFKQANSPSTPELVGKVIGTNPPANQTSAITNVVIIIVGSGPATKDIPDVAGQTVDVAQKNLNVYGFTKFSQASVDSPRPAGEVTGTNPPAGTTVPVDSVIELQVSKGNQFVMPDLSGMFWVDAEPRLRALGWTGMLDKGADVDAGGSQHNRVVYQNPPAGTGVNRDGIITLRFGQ
Kind of assay: Inhibition of Mycobacterium tuberculosis PKNB assessed as residual activity at 100 nM by KINOMEscan analysis relative to control.

The target in assay [9] is Proto-oncogene tyrosine-protein kinase Src (Homo sapiens) (UniProt P12931). Put plainly: Inhibition of SRC (unknown origin) assessed as residual activity at 100 nM by KINOMEscan analysis relative to control.
Proto-oncogene tyrosine-protein kinase Src (Homo sapiens), sequence (P12931 2-536 limits assumed): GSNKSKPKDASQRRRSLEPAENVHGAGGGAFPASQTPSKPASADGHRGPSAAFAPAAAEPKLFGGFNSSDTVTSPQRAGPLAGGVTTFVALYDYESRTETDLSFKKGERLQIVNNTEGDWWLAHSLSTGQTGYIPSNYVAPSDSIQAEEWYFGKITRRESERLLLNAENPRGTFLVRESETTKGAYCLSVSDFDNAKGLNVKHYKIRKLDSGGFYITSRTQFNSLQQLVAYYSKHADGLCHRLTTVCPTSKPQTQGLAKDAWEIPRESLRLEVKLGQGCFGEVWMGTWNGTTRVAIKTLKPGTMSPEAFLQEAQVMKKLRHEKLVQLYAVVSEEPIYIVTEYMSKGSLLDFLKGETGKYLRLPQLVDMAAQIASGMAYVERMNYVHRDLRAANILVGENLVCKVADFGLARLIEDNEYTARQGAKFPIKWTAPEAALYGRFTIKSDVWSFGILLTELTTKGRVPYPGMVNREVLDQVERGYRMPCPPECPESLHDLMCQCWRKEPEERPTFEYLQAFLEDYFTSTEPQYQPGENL
Assay [10] concerns the target TGF-beta receptor type-2 (Homo sapiens) (UniProt P37173). Kind of assay: Inhibition of TGFBR2 (unknown origin) assessed as residual activity at 100 nM by KINOMEscan analysis relative to control.
Assay [11] has as its target Serine/threonine-protein kinase tousled-like 2 (Homo sapiens) (UniProt Q86UE8). Put plainly: Inhibition of TLK2 (unknown origin) assessed as residual activity at 100 nM by KINOMEscan analysis relative to control.

Structures are written as SMILES.

RAC-alpha serine/threonine-protein kinase (Homo sapiens), sequence (P31749 whole entry): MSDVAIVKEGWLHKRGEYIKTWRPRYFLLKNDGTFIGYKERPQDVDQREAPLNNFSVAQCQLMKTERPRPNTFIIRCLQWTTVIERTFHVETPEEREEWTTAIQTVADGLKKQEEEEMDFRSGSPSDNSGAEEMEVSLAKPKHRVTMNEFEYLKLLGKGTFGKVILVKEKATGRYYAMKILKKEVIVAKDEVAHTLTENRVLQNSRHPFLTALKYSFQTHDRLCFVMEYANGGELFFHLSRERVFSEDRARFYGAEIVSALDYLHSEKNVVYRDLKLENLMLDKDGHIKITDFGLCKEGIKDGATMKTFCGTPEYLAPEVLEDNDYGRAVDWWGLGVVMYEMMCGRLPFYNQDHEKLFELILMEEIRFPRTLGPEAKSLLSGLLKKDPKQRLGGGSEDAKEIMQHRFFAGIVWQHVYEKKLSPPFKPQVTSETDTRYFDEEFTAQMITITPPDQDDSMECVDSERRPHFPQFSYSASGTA
TGF-beta receptor type-2 (Homo sapiens), sequence (P37173 whole entry): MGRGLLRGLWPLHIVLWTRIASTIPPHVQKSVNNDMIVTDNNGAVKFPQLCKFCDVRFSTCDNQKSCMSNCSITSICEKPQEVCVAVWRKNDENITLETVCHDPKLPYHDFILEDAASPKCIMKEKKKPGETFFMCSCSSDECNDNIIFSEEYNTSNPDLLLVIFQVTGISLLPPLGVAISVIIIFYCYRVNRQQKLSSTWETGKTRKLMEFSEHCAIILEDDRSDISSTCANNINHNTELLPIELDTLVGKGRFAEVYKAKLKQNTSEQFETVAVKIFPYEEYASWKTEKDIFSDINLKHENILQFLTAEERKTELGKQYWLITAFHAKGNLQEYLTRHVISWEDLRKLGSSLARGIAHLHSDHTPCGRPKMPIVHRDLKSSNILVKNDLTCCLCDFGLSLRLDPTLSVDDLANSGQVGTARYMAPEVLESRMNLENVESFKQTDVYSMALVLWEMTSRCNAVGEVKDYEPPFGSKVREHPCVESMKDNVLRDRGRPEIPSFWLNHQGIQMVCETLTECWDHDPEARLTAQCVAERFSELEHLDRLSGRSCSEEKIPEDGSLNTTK

As to `COc1cc2ncnc(N[C@H](C)c3cccc4ccccc34)c2cc1OC`, the Activity in assay [1] worked out at 79%; in assay [2], 88%; in assay [3], 85%; in [4], 83%; in assay [5], 73%; in assay [6] it was 100%. Besides, the Activity in assay [7] was 96%; in assay [8], 96%; in assay [9] it was 90%; in [10], 93%; in assay [11], 91%.
